The nature of this data set: Franz cell penetration study through pig skin stratum corneum/epidermis membrane. It is filed as in vitro ADME. As to conditions: for Cumulative penetration of spironolactone through stratum corneum/epidermis: formulation of Table 6a, receptor phosphate buffer pH 7.4. Here is the method: The functionality of the formulation was tested by evaporating the anti-solvent ethyl acetate. […] This formulation was used for penetration testing. When applied to the skin, spironolactone is intended to penetrate through the statum corneum into epidermis/dermis and not through the skin.
In this set-up, dermis was removed from full thickness pig skin and the remaining membrane consisting of stratum corneum and epidermis was mounted in the cell. The receptor fluid was phosphate buffer at pH 7.4 and 32° C. An amount of the experimental formulation corresponding to 50 mg of product and 1.5 mg of active substance after evaporation was applied. […] The experiment was performed at 34° C. and analysis of spironolactone was performed by HPLC.

Where [1] appears, read: after 6 hours, 1.5 mg of active substance applied.

Molecules are shown by their SMILES.

Here are results for one compound from patent US20130324502A1, “NOVEL FORMULATIONS FOR DERMAL, TRANSDERMAL AND MUCOSAL USE 1” (MOBERG PHARMA AB, priority 2011, published 2013).

On to `CC(=O)S[C@@H]1CC2=CC(=O)CC[C@]2(C)[C@H]2CC[C@@]3(C)[C@@H](CC[C@@]34CCC(=O)O4)[C@H]12` [Spironolactone], for which the “amount of spironolactone passed the skin membrane” value under setting [1] worked out at 0.5 mg. The “spironolactone passed the skin membrane, % of the dose” value under setting [1] turned out to be 33%. Also, the “Cumulative penetration of spironolactone through stratum corneum/epidermis” value is, setting by setting: (time 0 h) 0 μg/cm^2; (time 2 h) 281 μg/cm^2; (time 4 h) 381 μg/cm^2; (time 6 h) 440 μg/cm^2; (time 24 h) 466 μg/cm^2.
